Results taken from ChEMBL document CHEMBL4665869, “New thiazolopyrimidine as anticancer agents: Synthesis, biological evaluation, DNA binding, molecular modeling and ADMET study” (Bioorg Med Chem Lett, 2020).
In brackets after ≈: the same amount, converted by molar mass. Activity calls are given as the source filed them. The calls are words filed in the database; no cut-off is given here.

Columns and labels:
SNB-75 = assay: Growth inhibition of human SNB-75 cells at 10 uM relative to control; type: functional; conditions: read-out: GI
[1] = Growth inhibition of human renal cancer cells; type: functional; conditions: Renal cancer cell line
NCI-H460 = assay: Growth inhibition of human NCI-H460 cells at 10 uM relative to control; type: functional
SF-539 = assay: Growth inhibition of human SF-539 cells at 10 uM relative to control; type: functional
HOP-62 = assay: Growth inhibition of human HOP-62 cells at 10 uM relative to control; type: functional
HCT-116 = assay: Growth inhibition of human HCT-116 cells at 10 uM relative to control; type: functional
[2] = Growth inhibition of human breast cancer cells; type: functional; conditions: Breast cancer cell line
ACHN = assay: Growth inhibition of human ACHN cells at 10 uM relative to control; type: functional
SW-620 = assay: Growth inhibition of human SW-620 cells at 10 uM relative to control; type: functional
SF-268 = assay: Growth inhibition of human SF-268 cells at 10 uM relative to control; type: functional
SK-MEL-28 = assay: Growth inhibition of human SK-MEL-28 cells at 10 uM relative to control; type: functional
PC-3 = assay: Growth inhibition of human PC-3 cells at 10 uM relative to control; type: functional
HCC 2998 = assay: Growth inhibition of human HCC 2998 cells at 10 uM relative to control; type: functional
DNA = assay: Displacement of methyl green from DNA (unknown origin) assessed as DNA intercalation after 24 hrs by colorimetric assay; type: nucleic-acid assay
HL-60(TB) = assay: Growth inhibition of human HL-60(TB) cells at 10 uM relative to control; type: functional
MDA-MB-231 = assay: Growth inhibition of human MDA-MB-231 cells at 10 uM relative to control; type: functional
UACC-257 = assay: Growth inhibition of human UACC-257 cells at 10 uM relative to control; type: functional
[3] = Growth inhibition of human ovarian cancer cells; type: functional; conditions: Ovarian cancer cell line
RXF 393 = assay: Growth inhibition of human RXF 393 cells at 10 uM relative to control; type: functional
HOP-92 = assay: Growth inhibition of human HOP-92 cells at 10 uM relative to control; type: functional
IGROV-1 = assay: Growth inhibition of human IGROV-1 cells at 10 uM relative to control; type: functional
SF-295 = assay: Growth inhibition of human SF-295 cells at 10 uM relative to control; type: functional
SR = assay: Growth inhibition of human SR cells at 10 uM relative to control; type: functional
HT-29 = assay: Growth inhibition of human HT-29 cells at 10 uM relative to control; type: functional
OVCAR-8 = assay: Growth inhibition of human OVCAR-8 cells at 10 uM relative to control; type: functional; conditions: read-out: GI
RPMI-8226 = assay: Growth inhibition of human RPMI-8226 cells at 10 uM relative to control; type: functional
NCI-H23 = assay: Growth inhibition of human NCI-H23 cells at 10 uM relative to control; type: functional
U-251 = assay: Growth inhibition of human U-251 cells at 10 uM relative to control; type: functional
SK-OV-3 = assay: Growth inhibition of human SK-OV-3 cells at 10 uM relative to control; type: functional
M14 = assay: Growth inhibition of human M14 cells at 10 uM relative to control; type: functional
A498 = assay: Growth inhibition of human A498 cells at 10 uM relative to control; type: functional
[4] = Growth inhibition of human CNS cancer cells; type: functional; conditions: CNS cell
OVCAR-4 = assay: Growth inhibition of human OVCAR-4 cells at 10 uM relative to control; type: functional; conditions: read-out: GI
Melanoma cell line = assay: Growth inhibition of human melanoma cancer cells; type: functional
UO-31 = assay: Growth inhibition of human UO-31 cells at 10 uM relative to control; type: functional
[5] = test system: Panel NCI-60 (60 carcinoma cell lines); assay: Growth inhibition of human NCI60 cells; type: functional
Hs-578T = assay: Growth inhibition of human Hs-578T cells at 10 uM relative to control; type: functional; conditions: read-out: GI
Malme-3M = assay: Growth inhibition of human Malme-3M cells at 10 uM relative to control; type: functional
MDA-MB-468 = assay: Growth inhibition of human MDA-MB-468 cells at 10 uM relative to control; type: functional
SK-MEL-5 = assay: Growth inhibition of human SK-MEL-5 cells at 10 uM relative to control; type: functional
NCI-H322M = assay: Growth inhibition of human NCI-H322M cells at 10 uM relative to control; type: functional; conditions: read-out: GI
LOX IMVI = assay: Growth inhibition of human LOX IMVI cells at 10 uM relative to control; type: functional
TK-10 = assay: Growth inhibition of human TK-10 cells at 10 uM relative to control; type: functional
HCT-15 = assay: Growth inhibition of human HCT-15 cells at 10 uM relative to control; type: functional
CCRF-CEM = assay: Growth inhibition of human CCRF-CEM cells at 10 uM relative to control; type: functional
[6] = Growth inhibition of human Non-small cell lung cancer cells; type: functional; conditions: Non-small cell lung cancer cell line
SNB-19 = assay: Growth inhibition of human SNB-19 cells at 10 uM relative to control; type: functional; conditions: read-out: GI
NCI/ADR-RES = assay: Growth inhibition of human NCI/ADR-RES cells at 10 uM relative to control; type: functional; conditions: read-out: GI
UACC-62 = assay: Growth inhibition of human UACC-62 cells at 10 uM relative to control; type: functional
MCF7 = assay: Growth inhibition of human MCF7 cells at 10 uM relative to control; type: functional
A549 = assay: Growth inhibition of human A549 cells at 10 uM relative to control; type: functional
786-0 = assay: Growth inhibition of human 786-0 cells at 10 uM relative to control; type: functional
NCI-H226 = assay: Growth inhibition of human NCI-H226 cells at 10 uM relative to control; type: functional; conditions: read-out: GI
BT-549 = assay: Growth inhibition of human BT-549 cells at 10 uM relative to control; type: functional
SK-MEL-2 = assay: Growth inhibition of human SK-MEL-2 cells at 10 uM relative to control; type: functional
[7] = read-out: LC50 (the source's name)

In the case of `COc1cc(/C=C/C2=CC(c3cc(OC)c(OC)c(OC)c3)N3C=C(C)SC3=N2)cc(OC)c1OC` (centres undefined), the inhibition of growth at 10 µM (SNB-75) is reported as 75.6%, the GI50 [1] is reported as 1.49 µM and the TGI [1] is reported as 4.38 µM. For the same compound, the CC50 [1, 7] was 54.7 µM, the “growth inhibition (GI)” value (NCI-H460) was “Active” and the “growth inhibition (GI)” value (SF-539) was “Active”. The “growth inhibition (GI)” value (HOP-62) was “Active”, the “growth inhibition (GI)” value (HCT-116) was “Active” and the GI50 [2] was 1.39 µM. The TGI [2] was 17.9 µM, the CC50 [2, 7] was 68.7 µM and the “growth inhibition (GI)” value (ACHN) was “Active”. For the same compound, the “growth inhibition (GI)” value (SW-620) was “Active”, the “growth inhibition (GI)” value (SF-268) was “Active” and the “growth inhibition (GI)” value (SK-MEL-28) was “Active”. The “growth inhibition (GI)” value (PC-3) was “Active”, the “growth inhibition (GI)” value (HCC 2998) was “Active” and the IC50 (DNA) was 36.13 mg/L (≈ 70.8 µM). For the same compound, the “growth inhibition (GI)” value (HL-60(TB)) was “Active”, the “growth inhibition (GI)” value (MDA-MB-231) was “Active” and the “growth inhibition (GI)” value (UACC-257) was “Active”. The GI50 [3] was 1.75 µM, the TGI [3] was 33.9 µM and the CC50 [3, 7] was 76.5 µM. The “growth inhibition (GI)” value (RXF 393) was “Active”, the “growth inhibition (GI)” value (HOP-92) was “Active” and the “growth inhibition (GI)” value (IGROV-1) was “Active”. For the same compound, the “growth inhibition (GI)” value (SF-295) was “Active”, the “growth inhibition (GI)” value (SR) was “Active” and the “growth inhibition (GI)” value (HT-29) was “Active”. The inhibition of growth at 10 µM (OVCAR-8) was 91.9%, the “growth inhibition (GI)” value (RPMI-8226) was “Active” and the “growth inhibition (GI)” value (NCI-H23) was “Active”. For the same compound, the “growth inhibition (GI)” value (U-251) was “Active”, the “growth inhibition (GI)” value (SK-OV-3) was “Active” and the “growth inhibition (GI)” value (M14) was “Active”. For the same compound, the “growth inhibition (GI)” value (A498) was “Active”, the GI50 [4] was 1.85 µM and the TGI [4] was 10.2 µM. The CC50 [4, 7] was 54.2 µM, the inhibition of growth at 10 µM (OVCAR-4) was 88.4% and the GI50 (Melanoma cell line) was 0.99 µM. For the same compound, the TGI (Melanoma cell line) was 3.37 µM, the CC50 (Melanoma cell line; [7]) was 18.2 µM and the “growth inhibition (GI)” value (UO-31) was “Active”. The GI50 [5] was 1.07 µM, the LC50 [5] was 34.7 µM and the TGI [5] was 6.61 µM. For the same compound, the inhibition of growth at 10 µM (Hs-578T) was 98%, the “growth inhibition (GI)” value (Malme-3M) was “Active” and the “growth inhibition (GI)” value (MDA-MB-468) was “Active”. The “growth inhibition (GI)” value (SK-MEL-5) was “Active”, the inhibition of growth at 10 µM (NCI-H322M) was 86.4% and the “growth inhibition (GI)” value (LOX IMVI) was “Active”. The “growth inhibition (GI)” value (TK-10) was “Active”, the “growth inhibition (GI)” value (HCT-15) was “Active” and the “growth inhibition (GI)” value (CCRF-CEM) was “Active”. It also gave a GI50 [6] of 1.94 µM, a TGI [6] of 4.81 µM and a CC50 [6, 7] of 62.9 µM. For the same compound, the inhibition of growth at 10 µM (SNB-19) was 66.5%, the inhibition of growth at 10 µM (NCI/ADR-RES) was 80.6% and the “growth inhibition (GI)” value (UACC-62) was “Active”. The “growth inhibition (GI)” value (MCF7) was “Active”, the “growth inhibition (GI)” value (A549) was “Active” and the “growth inhibition (GI)” value (786-0) was “Active”. For the same compound, the inhibition of growth at 10 µM (NCI-H226) was 97.3%, the “growth inhibition (GI)” value (BT-549) was “Active” and the “growth inhibition (GI)” value (SK-MEL-2) was “Active”.
